Source: patent US6468972B1, “Method to promote, stimulate and/or delay hair loss by a brady kinin antagonist” (Societe L'Oreal S.A., priority 1995, dated 2002)

Legend:
[1] = Effect on the increase in intracellular calcium concentration induced by bradykinin (FURA 2 spectrofluorimetry); type: cell-based, human; settings: Homo sapiens, Keratinocyte, preincubation at least 120 seconds before 1 μM bradykinin, ORS keratinocytes
Procedure: (§1) a) Culturing Keratinocytes of the Outer Sheath of Human Hair Follicles: This procedure is a variant of that described by YANG et al., J. Invest. Dermatol., 1993, 101 (5), 652-659. After decontamination, a lifting scalp biopsy is treated with dispase in a proportion of 2.4 units/ml for 20 hours at 4° C. The outer sheath of the hair follicles (ORS) is then isolated by dissection, followed by treatment with 0.125% trypsin for 30 minutes at 37° C. The cells thus prepared are then cultured in conditioned Green medium for 6 days. […] The cells are then placed on glass slides 10 mm in diameter and cultured in KGM medium. b) Measurement of the Intracellular Calcium Concentration: The measurements are taken according to the procedures used conventionally by those skilled in the art and which are found, for example, in Cellular Calcium: A Practical Approach, published by J. G. McCormack and P. H. Cobbold; IRL PRESS (1991). The cells are incubated for 1 hour at 37° C. in 10 mM HEPES buffer, 5 mM KCl, 140 mM NaCl, 10 mM glucose, 1 mM MgCl2, 2 mM CaCl2 with 5 μM FURA 2 acetomethyl ester and Pluronic (5 mg/10 ml). After rinsing in the buffer, the slides are placed in an adapted support and the reading is taken using a PERKIN ELMER LS 50 B spectrofluorimeter at 37° C. The cells are preincubated with or without Minoxidil or Minoxidil sulphate, for at least 120 seconds before the injection of 1 μM bradykinin.

[2] = system: bradykinin-induced increase in intracellular calcium concentration in keratinocytes of the outer sheath of human hair follicles; assay: as above; type: cell-based; settings: for Effect on the increase in intracellular calcium concentration induced by bradykinin (in words): summary statement of Example 1; for % Inhibition (1 μM bradykinin): preincubation at least 120 seconds before 1 μM bradykinin, ORS keratinocytes
Procedure: as §1

Row | Molecule | inhibition at 10 µM ([1]; product concentration 10 μM) | inhibition at 50 µM ([1]; product concentration 50 μM) | inhibition at 100 µM ([1]; product concentration 100 μM) | inhibition at 1000 µM ([1]; product concentration 1000 μM) | Effect on the increase in intracellular calcium concentration induced by bradykinin (in words) [2] | % Inhibition (1 μM bradykinin) ([2]; product concentration 10 μM) | % Inhibition (1 μM bradykinin) ([2]; product concentration 50 μM) | % Inhibition (1 μM bradykinin) ([2]; product concentration 100 μM) | % Inhibition (1 μM bradykinin) ([2]; product concentration 1000 μM)
1 | Nc1cc(N2CCCCC2)nc(N)[n+]1[O-] [Minoxidil, 2,4-diamino-6-piperidinopyrimidine 3-oxide] | 0% | 15% | 25% | 31% | inhibit the increase in intracellular calcium concentration induced by bradykinin | – | – | – | –
2 | Minoxidil sulphate | – | – | – | – | inhibit the increase in intracellular calcium concentration induced by bradykinin | 0% | 31% | 54% | 70%
